The results in this text go back to US20220089568A1 (Janssen Biotech, Inc., priority 2019, published 2022).

The target in assay [1] is T1, human DHODH (Homo sapiens, UniProt Q02127).
T1 construct: purchased Proteros PR-0044
Nature of the assay: DHODH Enzymatic Assay. Type of assay: biochemical. Conditions: purified human DHODH; DCIP absorbance, end-point mode. The procedure, abridged: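 Purified human DHODH activity read as absorbance of DCIP, the terminal electron acceptor, in […] pH 7.5, 150 mM NaCl, 0.5 mM EDTA, 0.1% Triton X-100. Reaction started with a substrate mix of 20 mM DHO, 5 mM CoQ6 and 1 mM DCIP in assay buffer.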

Assay [2] relates to MOLM-13 cells. The assay is described as follows: MOLM-13 Cellular Assay. The class given is cell-based. To be noted: Homo sapiens, 72 hours exposure, cell viability by CellTiter-Glo. As for the experimental part: The day prior to assay set-up, cells were pelleted, resuspended in fresh media, counted, and cells were plated at 0.4×10^6 cell/mL in a T150 flask. […] Cells were exposed to different concentrations of test compounds at 37° C., 5% CO2 for 72 hours immediately after seeding.
(In general: ATP-based viability assays read luminescence as a measure of living cells.)

What is called EC50 is the midpoint of the concentration-response curve. Read a high EC50 as a less potent agent.

T1 sequence (Q02127 whole entry): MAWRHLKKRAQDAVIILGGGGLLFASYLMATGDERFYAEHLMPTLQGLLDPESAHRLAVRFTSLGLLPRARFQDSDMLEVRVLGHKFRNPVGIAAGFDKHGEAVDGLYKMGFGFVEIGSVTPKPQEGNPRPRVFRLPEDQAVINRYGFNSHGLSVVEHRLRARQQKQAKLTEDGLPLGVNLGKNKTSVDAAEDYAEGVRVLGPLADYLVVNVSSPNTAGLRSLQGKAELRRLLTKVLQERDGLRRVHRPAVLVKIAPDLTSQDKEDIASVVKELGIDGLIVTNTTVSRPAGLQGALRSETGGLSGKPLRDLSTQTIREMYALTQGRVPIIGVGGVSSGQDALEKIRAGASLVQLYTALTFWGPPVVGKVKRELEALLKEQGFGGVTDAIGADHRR

Turning to `CCn1c(CO)nn(-c2nc(O[C@@H](C)C(F)(F)F)c(C(=O)Nc3c(C)cc(C)nc3Cl)cc2F)c1=O` [Example 72, (S)-N-(2-Chloro-4,6-dimethylpyridin-3-yl)-6-(4-ethyl-3-(hydroxymethyl)-5-oxo-4,5-dihydro-1H-1,2,4-triazol-1-yl)-5-fluoro-2-((1,1,1-trifluoropropan-2-yl)oxy)nicotinamide], the EC50 in assay [1] was determined as 0.895 nM; in assay [2] it was 1.4 nM.
As to `CCn1c(CO)nn(-c2nc(O[C@@H](C)C(F)(F)F)c(C(=O)Nc3nccn3C3CC3)cc2F)c1=O` [Example 73, (S)-N-(1-Cyclopropyl-1H-imidazol-2-yl)-6-(4-ethyl-3-(hydroxymethyl)-5-oxo-4,5-dihydro-1H-1,2,4-triazol-1-yl)-5-fluoro-2-((1,1,1-trifluoropropan-2-yl)oxy)nicotinamide], the figures for the EC50 in assay [1] and in assay [2] were 95.2 nM and more than 100 nM, respectively.
On the same counts, the results for `CCn1c(CO)nn(-c2nc(O[C@@H](C)C(F)(F)F)c(C(=O)Nc3cc(C#N)ccc3Cl)cc2F)c1=O` [Example 74, (S)-N-(2-Chloro-5-cyanophenyl)-6-(4-ethyl-3-(hydroxymethyl)-5-oxo-4,5-dihydro-1H-1,2,4-triazol-1-yl)-5-fluoro-2-((1,1,1-trifluoropropan-2-yl)oxy)nicotinamide] are 1.7 nM and 13 nM.
In the case of `CCn1c(CO)nn(-c2nc(O[C@@H](C)C(F)(F)F)c(C(=O)Nc3cc(C#N)cnc3Cl)cc2F)c1=O` [Example 75, (S)-N-(2-Chloro-5-cyanopyridin-3-yl)-6-(4-ethyl-3-(hydroxymethyl)-5-oxo-4,5-dihydro-1H-1,2,4-triazol-1-yl)-5-fluoro-2-((1,1,1-trifluoropropan-2-yl)oxy)nicotinamide], the figures for the EC50 in assay [1] and in assay [2] were 19.2 nM and more than 100 nM, respectively.
The like results for `CCn1c(CO)nn(-c2nc(O[C@@H](C)C(F)(F)F)c(C(=O)Nc3c(N(C)C)ccnc3OC)cc2F)c1=O` [Example 76, (S)-N-(4-(Dimethylamino)-2-methoxypyridin-3-yl)-6-(4-ethyl-3-(hydroxymethyl)-5-oxo-4,5-dihydro-1H-1,2,4-triazol-1-yl)-5-fluoro-2-((1,1,1-trifluoropropan-2-yl)oxy)nicotinamide] were, in that order, 3.6 nM and 27.9 nM.
On the same counts, the results for `CCn1c(CO)nn(-c2nc(O[C@@H](C)C(F)(F)F)c(C(=O)Nc3ccc(C)nc3Cl)cc2F)c1=O` [Example 77, N-(2-Chloro-6-methyl-3-pyridyl)-6-[4-ethyl-3-(hydroxymethyl)-5-oxo-1,2,4-triazol-1-yl]-5-fluoro-2-[(1S)-2,2,2-trifluoro-1-methyl-ethoxy]pyridine-3-carboxamide] are 14 nM and 13.2 nM.
On the same counts, the results for `CCn1c(CO)nn(-c2nc(O[C@@H](C)C(F)(F)F)c(C(=O)Nc3cc(F)cnc3Cl)cc2F)c1=O` [Example 78, N-(2-Chloro-5-fluoro-3-pyridyl)-6-[4-ethyl-3-(hydroxymethyl)-5-oxo-1,2,4-triazol-1-yl]-5-fluoro-2-[(1S)-2,2,2-trifluoro-1-methyl-ethoxy]pyridine-3-carboxamide] are 12.3 nM and 25 nM.
Turning to `CCn1c(CO)nn(-c2nc(O[C@@H](C)C(F)(F)F)c(C(=O)Nc3c(Cl)ccnc3C)cc2F)c1=O` [Example 79, N-(4-Chloro-2-methyl-3-pyridyl)-6-[4-ethyl-3-(hydroxymethyl)-5-oxo-1,2,4-triazol-1-yl]-5-fluoro-2-[(1S)-2,2,2-trifluoro-1-methyl-ethoxy]pyridine-3-carboxamide], the values for the EC50 in assay [1] and in assay [2] were 1.9 nM and 5.3 nM, respectively.
On the same counts, the results for `CCn1c(CO)nn(-c2nc(O[C@@H](C)C(F)(F)F)c(C(=O)Nc3cn(C)nc3Cl)cc2F)c1=O` [Example 80, N-(3-Chloro-1-methyl-pyrazol-4-yl)-6-[4-ethyl-3-(hydroxymethyl)-5-oxo-1,2,4-triazol-1-yl]-5-fluoro-2-[(1S)-2,2,2-trifluoro-1-methyl-ethoxy]pyridine-3-carboxamide] are 7.2 nM and 12.9 nM.
Regarding `CCn1c(CO)nn(-c2nc(O[C@@H](C)C(F)(F)F)c(C(=O)Nc3cc(C(F)F)ncc3F)cc2F)c1=O` [Example 81, N-[2-(Difluoromethyl)-5-fluoro-4-pyridyl]-6-[4-ethyl-3-(hydroxymethyl)-5-oxo-1,2,4-triazol-1-yl]-5-fluoro-2-[(1S)-2,2,2-trifluoro-1-methyl-ethoxy]pyridine-3-carboxamide], the EC50 was 568 nM in assay [1] and more than 100 nM in assay [2].
Take `CCn1c(CO)nn(-c2nc(O[C@@H](C)C(F)(F)F)c(C(=O)Nc3nc(OC)ncc3F)cc2F)c1=O` [Example 82, 6-[4-Ethyl-3-(hydroxymethyl)-5-oxo-1,2,4-triazol-1-yl]-5-fluoro-N-(5-fluoro-2-methoxy-pyrimidin-4-yl)-2-[(1S)-2,2,2-trifluoro-1-methyl-ethoxy]pyridine-3-carboxamide]: the EC50 is 729 nM in assay [1] and more than 100 nM in assay [2].
On the same counts, the results for `CCn1c(CO)nn(-c2nc(O[C@@H](C)C(F)(F)F)c(C(=O)Nc3c(Cl)ccc(C)c3C)cc2F)c1=O` [Example 83, N-(6-Chloro-2,3-dimethyl-phenyl)-6-[4-ethyl-3-(hydroxymethyl)-5-oxo-1,2,4-triazol-1-yl]-5-fluoro-2-[(1S)-2,2,2-trifluoro-1-methyl-ethoxy]pyridine-3-carboxamide] are 0.69 nM and 0.73 nM.
The like results for `CCCn1c(CO)nn(-c2nc(O[C@@H](C)C(F)(F)F)c(C(=O)Nc3c(C)ccnc3Cl)cc2F)c1=O` [Example 84, N-(2-Chloro-4-methyl-3-pyridyl)-5-fluoro-6-[3-(hydroxymethyl)-5-oxo-4-propyl-1,2,4-triazol-1-yl]-2-[(1S)-2,2,2-trifluoro-1-methyl-ethoxy]pyridine-3-carboxamide] were, in that order, 5.1 nM and 4.8 nM.
On the same counts, the results for `CCn1c(CO)nn(-c2nc(O[C@@H](C)C(F)(F)F)c(C(=O)Nc3c(C)cnc(OC)c3C)cc2F)c1=O` [Example 85, 6-[4-Ethyl-3-(hydroxymethyl)-5-oxo-1,2,4-triazol-1-yl]-5-fluoro-N-(2-methoxy-3,5-dimethyl-4-pyridyl)-2-[(1S)-2,2,2-trifluoro-1-methyl-ethoxy]pyridine-3-carboxamide] are 0.91 nM and 1.1 nM.
Take `Cc1ccnc(Cl)c1NC(=O)c1cc(F)c(-n2nc(CF)n(C(C)C)c2=O)nc1O[C@@H](C)C(F)(F)F` [Example 86, (S)-2-(5-(((2-Chloro-4-methylpyridin-3-yl)-l2-azaneyl)carbonyl)-3-fluoro-6-((1,1,1-trifluoropropan-2-yl)oxy)pyridin-2-yl)-5-(fluoromethyl)-4-isopropyl-2,4-dihydro-3H-1,2,4-triazol-3-one]: the results for the EC50 in assay [1] and in assay [2] were 3.9 nM and 1.8 nM, respectively.
The like results for `CCn1c(CF)nn(-c2nc(O[C@@H](C)C(F)(F)F)c(C(=O)Nc3c(C)ccnc3Cl)cc2F)c1=O` [Example 87, N-(2-Chloro-4-methyl-3-pyridyl)-6-[4-ethyl-3-(fluoromethyl)-5-oxo-1,2,4-triazol-1-yl]-5-fluoro-2-[(1S)-2,2,2-trifluoro-1-methyl-ethoxy]pyridine-3-carboxamide] were, in that order, 0.448 nM and 1.14 nM.
Turning to `CCn1c(CO)nn(-c2nc(OC(C)C)c(C(=O)Nc3c(C)cnc(OC)c3Cl)cc2F)c1=O` [Example 88, N-(3-Chloro-2-methoxy-5-methyl-4-pyridyl)-6-[4-ethyl-3-(hydroxymethyl)-5-oxo-1,2,4-triazol-1-yl]-5-fluoro-2-isopropoxy-pyridine-3-carboxamide], the EC50 in assay [1] came to 1.16 nM; in assay [2], 2.34 nM.
The like results for `Cc1ccnc(Cl)c1NC(=O)c1cc(F)c(-n2nc(CO)n(C(C)C)c2=O)nc1O[C@@H](C)C(F)(F)F` [Example 89, N-(2-Chloro-4-methyl-3-pyridyl)-5-fluoro-6-[3-(hydroxymethyl)-4-isopropyl-5-oxo-1,2,4-triazol-1-yl]-2-[(1S)-2,2,2-trifluoro-1-methyl-ethoxy]pyridine-3-carboxamide] were, in that order, 10.7 nM and 4.09 nM.
On the same counts, the results for `Cc1ccnc(Cl)c1NC(=O)c1cc(F)c(-n2nc(CO)n(CC(F)F)c2=O)nc1O[C@@H](C)C(F)(F)F` [Example 90, N-(2-Chloro-4-methyl-3-pyridyl)-6-[4-(2,2-difluoroethyl)-3-(hydroxymethyl)-5-oxo-1,2,4-triazol-1-yl]-5-fluoro-2-[(1S)-2,2,2-trifluoro-1-methyl-ethoxy]pyridine-3-carboxamide] are 23.1 nM and 14.9 nM.
The like results for `CCCn1c(CO)nn(-c2nc(O[C@@H](C)C(F)(F)F)c(C(=O)Nc3c(C)n[nH]c3Cl)cc2F)c1=O` [Example 91, N-(5-Chloro-3-methyl-1H-pyrazol-4-yl)-5-fluoro-6-[3-(hydroxymethyl)-5-oxo-4-propyl-1,2,4-triazol-1-yl]-2-[(1S)-2,2,2-trifluoro-1-methyl-ethoxy]pyridine-3-carboxamide] were, in that order, 3.86 nM and 2.04 nM.
Turning to `CCCn1c(CF)nn(-c2nc(O[C@@H](C)C(F)(F)F)c(C(=O)Nc3c(C)ccnc3Cl)cc2F)c1=O` [Example 92, N-(2-Chloro-4-methyl-3-pyridyl)-5-fluoro-6-[3-(fluoromethyl)-5-oxo-4-propyl-1,2,4-triazol-1-yl]-2-[(1S)-2,2,2-trifluoro-1-methyl-ethoxy]pyridine-3-carboxamide], the results for the EC50 in assay [1] and in assay [2] were 0.639 nM and 0.435 nM, respectively.
